The subject of the data set is B16/F10 melanoma cells. Description: Efficacy study in tumor-burdened mice, tumor volume and mortality. Particulars: paclitaxel 40 mg/kg, formulations […], day 0, 2, 5 and 7. In kind it is in vivo, C57BL/6 mice. The method, then:
The efficacy of the formulated nanodrugs was compared to that of unformulated paclitaxel for the treatment of tumor-burdened mice. For these studies C57BL/6 mice were implanted with B16/F10 melanoma cells. Once the cells formed tumors with an approximate volume of 500 mm^3 the mice (n=4/group/formulation) received an injection of either unformulated paclitaxel or one of the formulations (Formulations II, IV and XIII). Paclitaxel was given at a dose of 40 mg/kg, whereas the formulated drugs were administered at a dose of 2.5 mg/kg. The mice were treated on day 0, 2, 5 and 7 of the days and tumor responses were determined by measuring tumor volume during the course of the study

Molecule `CC(=O)O[C@H]1C(=O)[C@@]2(C)[C@H]([C@H](OC(=O)c3ccccc3)[C@]3(O)C[C@H](OC(=O)[C@H](O)[C@@H](NC(=O)c4ccccc4)c4ccccc4)C(C)=C1C3(C)C)[C@]1(OC(C)=O)CO[C@@H]1C[C@@H]2O` [unformulated paclitaxel, Paclitaxel] yielded a mortality rate of 75%.

For the origin of these results see US8558019B2, “Thiolated paclitaxels for reaction with gold nanoparticles as drug delivery agents” (Virginia Tech Intellectual Properties, Inc., priority 2007, dated 2013).
